In patent US20140349943A1, “TOPICAL FORMULATIONS OF CHEMERIN C15 PEPTIDES FOR THE TREATMENT OF DERMATOLOGICAL CONDITIONS” (priority 2011, published 2014):
Where “and” joins values, the source holds several entries; their conditions need not be identical. Identical values can stand only once. Peptide text beside a SMILES is read from it.

Legend:
GPR1 = target: T1, GPR1 (Homo sapiens, UniProt P46091); test: PathHunter β-Arrestin assay, GPR1, agonist and antagonist mode; format: cell-based; settings: for agonist activity, in words / Rank Order / % Max Activity / % Max Inhibition / antagonist activity, in words: GPR1; for agonist activity, in words: FIG. 2A/2B; for Rank Order: agonist; for % Max Activity: agonist mode; for % Max Inhibition: antagonist mode, chemerin at EC80; for antagonist activity, in words: chemerin at 80% maximum signal
T1 construct: host or cells: CHO
T1 sequence (P46091 1-355): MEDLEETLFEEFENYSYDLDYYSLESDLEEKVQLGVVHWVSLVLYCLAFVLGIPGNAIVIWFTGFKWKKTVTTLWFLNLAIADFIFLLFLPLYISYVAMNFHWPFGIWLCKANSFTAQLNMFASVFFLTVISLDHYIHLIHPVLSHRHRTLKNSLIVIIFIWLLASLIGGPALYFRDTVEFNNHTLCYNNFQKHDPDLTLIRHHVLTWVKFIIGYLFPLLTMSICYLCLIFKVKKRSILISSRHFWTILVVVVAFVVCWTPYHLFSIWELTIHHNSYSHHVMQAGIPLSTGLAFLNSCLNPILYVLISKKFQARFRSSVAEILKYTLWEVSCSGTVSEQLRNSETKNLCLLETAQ
Description: The DiscoveRx PathHunter™ eXpress GPCR activity assay was employed to test agonist and antagonist activities of the chemerin peptides against the GPCRs ChemR23 and GPR1. Two assay formats were tested, the PathHunter β-Arrestin assay and the Hit Hunter cAMP Hunter assay.
The PathHunter β-Arrestin assay monitors the activation of a GPCR in a homogenous, non-imaging assay format using a technology developed by DiscoveRx called complementation, which utilizes an enzyme fragment complementation (EFC) assay with β-galactosidase (β-Gal) as the functional reporter. The enzyme is split into two complementary portions expressed as fusion proteins in the cell. The Enzyme Acceptor (EA) is fused to β-Arrestin and the ProLink donor peptide is fused to the GPCR of interest. Upon GPCR stimulation, β-Arrestin is recruited to the receptor for desensitization, bringing the two fragments of β-Gal together and allowing complementation to occur.
The assay involves CHO cell lines that express 1) a GPCR of interest (e.g. ChemR23 or GPR1) that has a fragment of the βgal enzyme fused to the C-terminus of the receptor and 2) a β-arrestin fused to the main β-gal enzyme. When the agonist binds to the receptor, β-arrestin is recruited to the receptor and the β-gal enzyme is complemented by the fragment from the GPCR thus forming a functional β-gal enzyme. A substrate is then added and luminescence is generated to detect β-arrestin recruitment.
The protocol used was a standard protocol employed by DiscoveRx PathHunter™ profiling service. […] Once it was established that the cells were healthy and growing normally, cells were passaged from flasks using cell dissociation reagent and seeded into white walled clear bottom 384-well microplates for compound profiling. For profiling, cells were seeded at a density of 5000 cells per well in a total volume of 20 μL and were allowed to adhere and recover overnight prior to compound addition.
For the agonist assay, intermediate dilution of compound stocks were generated such that 5 μL of 5× compound could be added to each well with a final DMSO concentration of 1% of total volume. For profiling compound in agonist mode, the cells were incubated in the presence of compound at 37° C. for 90 minutes.
For the antagonist assay, agonist dose curves were performed the morning of profiling to determine the EC80 value for the following antagonist testing with compounds. 5 μL of 5× agonist (i.e. chemerin) was added to each well with an equal concentration of vehicle present. EC80 agonist concentration was determined directly from agonist dose curve. For antagonist determination, cells were preincubated with antagonist followed by agonist challenge at the EC80 concentration: 4. 5 μL of 5× compound added to cells and incubated at 37° C. for 30 minutes. 5. 5 μL of 6× EC80 agonist added to cells and incubated at 37° C. for 90 minutes.
Microplates were read following signal generation with a PerkinElmer Envision™ instrument for chemiluminescent signal detection
Dose curves in the presence and absence of compound were plotted using GraphPad Prism or Activity Base. For agonist mode assays, percentage activity was calculated using the following formula: % Activity=100%×(Mean RLU of test sample−mean RLU of vehicle control)/(mean MAX RLU control ligand−mean RLU of vehicle control)). For antagonist mode assays, percentage inhibition was calculated using the following formula: % Inhibition=100%×(1−(Mean RLU of test sample−mean RLU of vehicle control)/(mean RLU of EC80 control−mean RLU of vehicle control)).

[1] = Franz cell skin penetration, C15 in 50% DMSO in water; format: in vitro ADME, human
From the text: The objective of the study was to determine whether human C15 peptide would diffuse through in vitro human skin maintained under flow-through conditions in Franz cells with 50% DMSO in water. 50% DMSO is considered an acceptable maximum for penetration enhancement.
The samples used in the study were mouse and human chemerin C15 peptides stored at −20 C°. The skin sample used was human skin obtained from mammoplasty. A frozen sample was stored at −20 C.° for 30 days. A fresh sample was obtained in tissue media and antibiotics and used within 3 days.
1. A 1% solution of mouse C15 in 50% DMSO in water was applied to previously frozen human skin to develop the HPLC method for subsequent tests with human C15. This was done in triplicate. 2. A 2% solution of human C15 in 50% DMSO in water was applied to fresh human skin and epidermis, dermis, and receptor fluid were analyzed for C15.
Skin was rinsed, blotted dry, cut into circular pieces and conditioned in the Franz cell for 2 hours prior to C15 application. Flow-through, water-jacketed diffusion cells that exposed a skin area of 2.54 cm2 were used. The cells were maintained at 37° C., operated under static conditions and stirred at 700 rpm for 24 hr. PBS (pH=7.0) was used as the receptor fluid. C15 solutions in 50% DMSO in water was prepared on the day of the experiments.
400 μl of each C15 solution was pipetted in aliquots of 100 μl onto the skin surface and the diffusion cell sealed with parafilm. Diffusion cells were run in triplicate with a single control consisting of skin treated with vehicle only. Receptor fluid (≈5 mL) was collected at the end of 24 hours and concentrated by evaporation prior to analysis. The skin was blotted dry, tape-stripped three times to remove residual C15 and heat-separated at 50° C. into epidermis and dermis. Epidermis was sonicated in 5% TCA for 10 minutes and the supernatant analyzed. Dermis was minced and homogenized in 5% TCA and the supernatant concentrated and analyzed.
For the mouse C15 experiment only the receptor fluid was analyzed.
A reverse-phase HPLC method was developed to quantify Human C15 (Shimamura et al., 2009). The separation was achieved using a Phenomenex Gemini™ C18 column (Cat. No. 00B-4439-E0, 4.6×50 mm, 3 μm) at 40° C. in the Shimadzu 20A system. The mobile phase was mixed with (A) 0.1% formic in water and (B) 0.1% formic acid in acetonitrile. The separation was conducted using a gradient system of 80% A+20% B to 10% A+90% B (0-3 min) and 10% A+90% B (3-3.5 min) at a flow rate of 0.8 ml/min. The injection volume was 5 μl. The eluent was monitored at 275 nm Human C15 was observed as a single peak in the chromatogram with retention time at about 1.8 min. The quantification of Human C15 was achieved by external standard calibration. […]

[2] = 2% human C15 in 50% DMSO, fresh human skin, % absorbed of the applied dose, listed as C15

| Compound | IC50 (GPR1) [µM] | agonist activity, in words (GPR1) | Rank Order (GPR1) | % Max Activity (GPR1) [%] | % Max Inhibition (GPR1) [%] | antagonist activity, in words (GPR1) | % C15 in skin compartment, epidermis [1, 2] | % C15 in skin compartment, receptor fluid [1, 2] | penetration through human skin, in words ([1]; in vitro flow-through conditions, 50% DMSO in water) | C15 receptor fluid level ([1]; 1% mouse C15 in 50% DMSO, frozen human skin) [%] |
| --- | --- | --- | --- | --- | --- | --- | --- | --- | --- | --- |
| C[C@H](N)C(=O)NCC(=O)N[C@@H](CCC(=O)O)C(=O)N[C@@H](CC(=O)O)C(=O)N1CCC[C@H]1C(=O)N[C@@H](Cc1c[nH]cn1)C(=O)N[C@@H](CO)C(=O)N[C@@H](Cc1ccccc1)C(=O)N[C@@H](Cc1ccc(O)cc1)C(=O)N[C@@H](Cc1ccccc1)C(=O)N1CCC[C@H]1C(=O)NCC(=O)N[C@@H](CCC(N)=O)C(=O)N[C@@H](Cc1ccccc1)C(=O)N[C@@H](C)C(=O)N[C@@H](Cc1ccccc1)C(=O)N[C@@H](CO)C(=O)O [C17 (human)] (H-AGEDPHSFYFPGQFAFS-OH; N-terminus and C-terminus assumed) | > 10 | exhibited agonist activity | 1 | 80.9 | 0 | – | – | – | – | – |
| C[C@H](N)C(=O)NCC(=O)N[C@@H](CCC(=O)O)C(=O)N[C@@H](CC(=O)O)C(=O)N1CCC[C@H]1C(=O)N[C@@H](Cc1c[nH]cn1)C(=O)N[C@@H](CO)C(=O)N[C@@H](Cc1ccccc1)C(=O)N[C@@H](Cc1ccc(O)cc1)C(=O)N[C@@H](Cc1ccccc1)C(=O)N1CCC[C@H]1C(=O)NCC(=O)N[C@@H](CCC(N)=O)C(=O)N[C@@H](Cc1ccccc1)C(=O)N[C@@H](C)C(=O)O [C15 (human)] (H-AGEDPHSFYFPGQFA-OH; N-terminus and C-terminus assumed) | > 10 | neither human nor mouse chemerin C15 peptides acted as agonists | 3 | 10.6 | 0 | neither human nor mouse chemerin C15 peptides acted as antagonists | 8.76% and 7.38% and 2.67% | 0.02% and 0.09% and 0.01% | does penetrate through human skin | – |
| CC(C)C[C@H](NC(=O)[C@H](Cc1ccccc1)NC(=O)[C@H](Cc1ccc(O)cc1)NC(=O)CNC(=O)[C@H](Cc1c[nH]cn1)NC(=O)[C@@H]1CCCN1C(=O)[C@H](CC(=O)O)NC(=O)[C@H](CCC(=O)O)NC(=O)CNC(=O)[C@H](C)N)C(=O)N1CCC[C@H]1C(=O)NCC(=O)N[C@@H](CCC(N)=O)C(=O)N[C@@H](Cc1ccccc1)C(=O)N[C@@H](C)C(=O)O [mC15] (H-AGEDPHGYFLPGQFA-OH; N-terminus and C-terminus assumed) | > 10 | neither human nor mouse chemerin C15 peptides acted as agonists | 4 | 27.8 | 0 | neither human nor mouse chemerin C15 peptides acted as antagonists | – | – | – | 0.3 |
